# Earlier results as cited in PubChem BioAssay AID1259409 (Chemical Carcinogenesis Research Information System (CCRIS), 2018).
# System: rodent chemically induced tumor inhibition, incidence and multiplicity
# Experiment: CCRIS tumor inhibitor studies
structure (smiles),measurement,setting,value
Cn1c(=O)c2c(ncn2C)n(C)c1=O,"tumour outcome (control, treated, inhibition, significance)","Carcinogen: DIETHYLNITROSAMINE, 55-18-5, Dose [Inhibitor]: 0, 600 MG/L IN DRINKING WATER BEGINNING 3 D PRIOR TO FIRST CARCINOGEN DOSE AND CONTINUING TO 14 D POST LAST CARCINOGEN D, Route [Inhibitor]: ORAL, Species: RAT, Strain/Sex: BD6/FEMALE, Target Tissue: Type of Lesion: ESOPHAGUS: TUMOR, Dose [Carcinogen]: 80 MG/KG BW 1/WK FOR 7 WK, Promoter: NONE USED","25%, 11%, 56%, not significant"
same,"tumour outcome (control, treated, inhibition, significance)","Carcinogen: DIETHYLNITROSAMINE, 55-18-5, Dose [Inhibitor]: 0, 600 MG/L IN DRINKING WATER BEGINNING 3 D PRIOR TO FIRST CARCINOGEN DOSE AND CONTINUING TO 14 D POST LAST CARCINOGEN D, Route [Inhibitor]: ORAL, Species: RAT, Strain/Sex: BD6/FEMALE, Target Tissue: Type of Lesion: ESOPHAGUS: TUMOR, Dose [Carcinogen]: 80 MG/KG BW 1/WK FOR 8 WK, Promoter: NONE USED","18%, 22%, -22%, not significant"
same,"tumour outcome (control, treated, inhibition, significance)","Carcinogen: DIETHYLNITROSAMINE, 55-18-5, Dose [Inhibitor]: 0, 600 MG/L IN DRINKING WATER BEGINNING 3 D PRIOR TO FIRST CARCINOGEN DOSE AND CONTINUING TO 14 D POST LAST CARCINOGEN D, Route [Inhibitor]: ORAL, Species: RAT, Strain/Sex: BD6/FEMALE, Target Tissue: Type of Lesion: LIVER: TUMOR, Dose [Carcinogen]: 80 MG/KG BW 1/WK FOR 7 WK, Promoter: NONE USED","64%, 56%, 13%, not significant"
same,"tumour outcome (control, treated, inhibition, significance)","Carcinogen: DIETHYLNITROSAMINE, 55-18-5, Dose [Inhibitor]: 0, 600 MG/L IN DRINKING WATER FOR DURATION OF STUDY BEGINNING 4 D POST CARCINOGEN TREATMENT (STUDY DURATION: 6 MO), Route [Inhibitor]: ORAL, Species: RAT, Strain/Sex: BD6/FEMALE, Target Tissue: Type of Lesion: LIVER: TUMOR, Dose [Carcinogen]: 80 MG/KG BW 1/WK FOR 9 WK, Promoter: NONE USED","100%, 100%, 0%, not significant"
same,"tumour outcome (control, treated, inhibition, significance)","Carcinogen: DIETHYLNITROSAMINE, 55-18-5, Dose [Inhibitor]: 0, 600 MG/L IN DRINKING WATER FOR DURATION OF STUDY BEGINNING 4 D POST CARCINOGEN TREATMENT(STUDY DURATION: 6 MO), Route [Inhibitor]: ORAL, Species: RAT, Strain/Sex: BD6/FEMALE, Target Tissue: Type of Lesion: ESOPHAGUS: TUMOR, Dose [Carcinogen]: 80 MG/KG BW 1/WK FOR 9 WK, Promoter: NONE USED","29%, 21%, 28%, not significant"
same,"tumour outcome (control, treated, inhibition, significance)","Carcinogen: DIETHYLNITROSAMINE, 55-18-5, Dose [Inhibitor]: 0, 600 MG/L IN DRINKING WATER FOR DURATION OF STUDY BEGINNING 7 D PRIOR TO CARCINOGEN TREATMENT (STUDY DURATION: 6 MO), Route [Inhibitor]: ORAL, Species: RAT, Strain/Sex: BD6/FEMALE, Target Tissue: Type of Lesion: ESOPHAGUS: TUMOR, Dose [Carcinogen]: 80 MG/KG BW 1/WK FOR 5 WK, Promoter: NONE USED","6%, 11%, -83%, not significant"
same,"tumour outcome (control, treated, inhibition, significance)","Carcinogen: DIETHYLNITROSAMINE, 55-18-5, Dose [Inhibitor]: 0, 600 MG/L IN DRINKING WATER FOR DURATION OF STUDY BEGINNING 7 D PRIOR TO CARCINOGEN TREATMENT (STUDY DURATION: 6 MO), Route [Inhibitor]: ORAL, Species: RAT, Strain/Sex: BD6/FEMALE, Target Tissue: Type of Lesion: LIVER: TUMOR, Dose [Carcinogen]: 80 MG/KG BW 1/WK FOR 5 WK, Promoter: NONE USED","44%, 41%, 7%, not significant"
same,"tumour outcome (control, treated, inhibition, significance)","Carcinogen: DIETHYNITROSAMINE, 55-18-5, Dose [Inhibitor]: 0, 600 MG/L IN DRINKING WATER BEGINNING 3 D PRIOR TO FIRST CARCINOGEN DOSE AND CONTINUING TO 14 D POST LAST CARCINOGEN D, Route [Inhibitor]: ORAL, Species: RAT, Strain/Sex: BD6/FEMALE, Target Tissue: Type of Lesion: LIVER: TUMOR, Dose [Carcinogen]: 80 MG/KG BW 1/WK FOR 8 WK, Promoter: NONE USED","82%, 72%, 12%, not significant"
same,"tumour outcome (control, treated, inhibition, significance)","Carcinogen: N,N-DIETHYLNITROSAMINE, 55-18-5, Dose [Inhibitor]: 600 MG/L IN DRINKING WATER DAILY STARTING 3 D BEFORE START OF CARCINOGEN INJECTION AND CONTINUING UNTIL 2 WK AFTER LAST, Route [Inhibitor]: ORAL, Species: RAT, Strain/Sex: BDIV AND WISTAR/MALE, Target Tissue: Type of Lesion: LIVER: TUMOR, Dose [Carcinogen]: 80 MG/KG BW IN 0.2 ML 0.9% SALINE 1/WK FOR 10 WK, Promoter: NONE USED","18/22 (82%), 12/18 (67%), 18%, not calculated"
same,"tumour outcome (control, treated, inhibition, significance)","Carcinogen: N-METHYL-N'-NITRO-N-NITROSOGUANIDINE, 70-25-7, Dose [Inhibitor]: 0, 0.25% IN DRINKING WATER FOR 32 WK BEGINNING POST CARCINOGEN TREATMENT (STUDY DURATION: 40 WK), Route [Inhibitor]: ORAL, Species: RAT, Strain/Sex: WISTAR/MALE, Target Tissue: Type of Lesion: GLANDULAR STOMACH (PYLORUS): ADENOCARCINOMA, Dose [Carcinogen]: 100 PPM IN DRINKING WATER FOR 8 WK, Promoter: SODIUM CHLORIDE, 7647-14-5","4/29 (14%), 0/28 (0%), 100%, p<0.05"
same,"tumour outcome (control, treated, inhibition, significance)","Carcinogen: N-METHYL-N-NITROSOUREA, 684-93-5, Dose [Inhibitor]: 0, 500 MG/L IN DRINKING WATER BEGINNING AT 60 D OF AGE AND CONTINUING FOR DURATION OF STUDY (STUDY DURATION: 26 WK), Route [Inhibitor]: ORAL, Species: RAT, Strain/Sex: SPRAGUE-DAWLEY/FEMALE, Target Tissue: Type of Lesion: MAMMARY GLAND: CARCINOMA, Dose [Carcinogen]: 2.5 MG/100 G BW ONCE AT 57 D OF AGE, Promoter: NONE USED","34/40 (85%), 31/40 (78%), 8%, not significant"
same,"tumour outcome (control, treated, inhibition, significance)","Carcinogen: N-METHYL-N-NITROSOUREA, 684-93-5, Dose [Inhibitor]: 0, 500 UG/L IN DRINKING WATER BEGINNING AT 29 D OF AGE AND CONTINUING TO D 60 OF AGE (STUDY DURATION: 30 WK), Route [Inhibitor]: ORAL, Species: RAT, Strain/Sex: SPRAGUE-DAWLEY, Target Tissue: Type of Lesion: MAMMARY GLAND: CARCINOMA, Dose [Carcinogen]: 2.5 MG/100 G BW ONCE AT 57 D OF AGE, Promoter: NONE USED","34/40 (85%), 32/40 (80%), 6%, not significant"
same,"tumour outcome (control, treated, inhibition, significance)","Carcinogen: SUBCUTANEOUS, Dose [Inhibitor]: 4-(METHYLNITROSAMINO)-1-(3-PYRIDYL-1-BUTANONE), 64091-91-4, Route [Inhibitor]: 0, 680 PPM IN DRINKING WATER FOR 22 WK BEGINNING 1 WK PRIOR TO CARCINOGEN TREATMENT (STUDY DURATION: 101 WK), Species: RAT, Strain/Sex: ORAL, Target Tissue: Type of Lesion: LIVER :TUMOR, Dose [Carcinogen]: NONE USED","11/32 (34%), 8/20 (40%), -18%, not significant"
same,"tumour outcome (control, treated, inhibition, significance)","Carcinogen: URETHANE, 51-79-6, Dose [Inhibitor]: 0.05 UMOL/G BW GIVEN AT 6 HR INTERVALS DURING THE PERIOD OF 0 TO 36 HR AFTER CARCINOGEN TREATMENT FOR 7 INJECTIONS FOLLO, Route [Inhibitor]: INTRAPERITONEAL, Species: MOUSE, Strain/Sex: ICR/FEMALE, Target Tissue: Type of Lesion: LUNG: PAPILLARY ADENOMA, Dose [Carcinogen]: 0.1 MG/G BW SINGLE INJECTION, Promoter: NONE USED","31/59 (53%), 7/32 (22%), 58%, p<0.01"
